# Where two headings read alike, the source gives them in different places.
# Legend:
# [1] = system: MCF-7 (estrogen receptor positive breast cancer cells); test: Anti-proliferative activity against MCF-7 cells; assay type: cell-based; details: mean ± SD
# Experimental: (§1) Once synthesized, the library of coumermycin A1 analogs containing the olefinic and saturated linkers, were evaluated for anti-proliferative activity against SKBr3 (estrogen receptor negative, Her2 over-expressing breast cancer cells), MCF-7 (estrogen receptor positive breast cancer cells), A549 (human lung adenocarcinoma epithelial), HT29 (Human colon adenocarcinoma grade II), and PC3mm2 (androgen receptor insensitive prostate cancer) cell lines. […] As shown, X is at the 6 position and Y is at the 8 position.
# [2] = system: A549 (human lung adenocarcinoma epithelial); test: Anti-proliferative activity against A549 cells; assay type: cell-based
# Experimental: as §1, with “lines. The activities produced provide insight into the optimal distance between binding sites and provide rationale for subsequent analog design.” for “lines.”
# [3] = system: PC3mm2 (androgen receptor insensitive prostate cancer); test: Anti-proliferative activity against PC3mm2 cells; assay type: cell-based
# Experimental: as §1, with “lines. The activities produced provide insight into the optimal distance between binding sites and provide rationale for subsequent analog design.” for “lines.”
# [4] = system: SKBr3 (estrogen receptor negative, Her2 over-expressing breast cancer cells); test: Anti-proliferative activity against SKBr3 cells; assay type: cell-based; details: for IC50: mean ± SD
# Experimental: as §1
# [5] = system: HT29 (Human colon adenocarcinoma grade II); test: Anti-proliferative activity against HT29 cells; assay type: cell-based
# Experimental: as §1, with “lines. The activities produced provide insight into the optimal distance between binding sites and provide rationale for subsequent analog design.” for “lines.”
# [6] = system: HSP90-dependent client proteins (Her-2, Raf, Akt); test: Western blot analyses of HSP90 client protein degradation in MCF-7 breast cancer cells; assay type: cell-based; details: MCF-7 lysates, 24 hour treatment, 5x and 1/2 of antiproliferative IC50; actin control
# Experimental: Since actin is not dependent on HSP90 for its maturation, actin levels should remain constant after treatment with an HSP90 inhibitor and is therefore used as a control. […] L represents a concentration ½ of the anti-proliferative IC50 value while H represents a concentration 5 times greater than the anti-proliferative IC50 value. GDA (500 nM) represents a positive control, while DMSO (0), vehicle, serves as the negative control. […]
# cancer cells = details: cited from earlier work
# [7] = Table 2, read-out: Anti-Proliferation Activities of non-Noviosylated Olefin Dimers, MCF7
# [8] = Table 2, read-out: Anti-Proliferation Activities of non-Noviosylated Olefin Dimers, A549
# [9] = Table 2, read-out: Anti-Proliferation Activities of non-Noviosylated Olefin Dimers, PC3mm2
# [10] = Table 2, read-out: Anti-Proliferation Activities of non-Noviosylated Olefin Dimers, SKBr3
# [11] = Table 1, at least two experiments in triplicate, read-out: Anti-Proliferation Activities of Noviosylated Olefin Dimers, MCF-7
# [12] = Table 1, at least two experiments in triplicate, read-out: Anti-Proliferation Activities of Noviosylated Olefin Dimers, SKBr3
# [13] = Table 4, read-out: Anti-Proliferation Activities of Biaryl Dimers, MCF-7
# [14] = Table 4, read-out: Anti-Proliferation Activities of Biaryl Dimers, SKBr3
smiles,measurement,setting,value
COc1c(OC2CCN(C)CC2)ccc2cc(NC(=O)CCC/C=C/CCCC(=O)Nc3cc4ccc(OC5CCN(C)CC5)c(OC)c4oc3=O)c(=O)oc12 [Compound 34],IC50,[1]; [7],880 ± 110 nM
same,IC50,[2]; [8],1210 nM
same,IC50,[3]; [9],50 nM
same,IC50,[4]; [10],370 ± 50 nM
COc1c(OC2CCN(C)CC2)ccc2cc(NC(=O)C/C=C/CC(=O)Nc3cc4ccc(OC5CCN(C)CC5)c(OC)c4oc3=O)c(=O)oc12 [Compound 28],IC50,[1]; [7],1460 ± 200 nM
same,IC50,[3]; [9],8630 nM
same,IC50,[4]; [10],710 ± 40 nM
Cc1c(OC2CCN(C)CC2)ccc2cc(NC(=O)CCCCC(=O)Nc3cc4ccc(OC5CCN(C)CC5)c(C)c4oc3=O)c(=O)oc12 [Compound 42],IC50,"[1]; Table 3, read-out: Anti-Proliferation Activities of Saturated Linker Dimers, MCF-7",2460 ± 400 nM
same,IC50,"[4]; Table 3, read-out: Anti-Proliferation Activities of Saturated Linker Dimers, SKBr3",1260 ± 200 nM
Cc1c(OC2CCN(C)CC2)ccc2cc(NC(=O)CC/C=C\CCC(=O)Nc3cc4ccc(OC5CCN(C)CC5)c(C)c4oc3=O)c(=O)oc12 [Compound 38],IC50,[1]; [7],49900 ± 2600 nM
same,IC50,[2]; [8],77600 nM
same,IC50,[3]; [9],32900 nM
same,IC50,[4]; [10],> 100000 nM
Cc1c(OC2CCN(C)CC2)ccc2cc(NC(=O)C/C=C/CC(=O)Nc3cc4ccc(OC5CCN(C)CC5)c(C)c4oc3=O)c(=O)oc12 [Compound 26],IC50,[1]; [7],290 ± 10 nM
same,IC50,[2]; [8],8840 nM
same,IC50,"[5]; Table 2, read-out: Anti-Proliferation Activities of non-Noviosylated Olefin Dimers, HT29",7100 nM
same,IC50,[3]; [9],7510 nM
same,IC50,[4]; [10],180 ± 30 nM
COc1c(OC2CCN(C)CC2)ccc2cc(NC(=O)CC/C=C/CCC(=O)Nc3cc4ccc(OC5CCN(C)CC5)c(OC)c4oc3=O)c(=O)oc12 [Compound 31],"degradation of HSP90 client proteins (Her-2, Raf, Akt), Western blot",[6],no activity against HSP90 client proteins
same,IC50,[1]; [7],1120 ± 30 nM
same,IC50,[2]; [8],1220 nM
same,IC50,[3]; [9],60 nM
same,IC50,[4]; [10],2220 ± 500 nM
COc1cc2cc(NC(=O)CCC=CCCC(=O)Nc3cc4cc(OC)c(OC5OC(C)(C)C(OC)C(O)C5O)c(C)c4oc3=O)c(=O)oc2c(C)c1OC1OC(C)(C)C(OC)C(O)C1O (stereo not drawn) [Compound 18],IC50,[1]; [11],168000 ± 9700 nM
same,IC50,[4]; [12],106000 ± 13200 nM
COc1cc2cc(NC(=O)CC/C=C/CCC(=O)Nc3cc4cc(OC)c(OC5CCN(C)CC5)c(C)c4oc3=O)c(=O)oc2c(C)c1OC1CCN(C)CC1 [Compound 30],IC50,[1]; [7],1310 ± 100 nM
same,IC50,[2]; [8],13400 nM
same,IC50,[3]; [9],4860 nM
same,IC50,[4]; [10],1100 ± 130 nM
COc1cc(C(=O)Nc2cc3ccc(OC4OC(C)(C)C(OC)C(O)C4O)c(C)c3oc2=O)cc(-c2cc(OC)cc(C(=O)Nc3cc4ccc(OC5OC(C)(C)C(OC)C(O)C5O)c(C)c4oc3=O)c2)c1 (stereo not drawn) [Compound 68],IC50,[1]; [13],1850 ± 520 nM
same,IC50,"[2]; Table 4, read-out: Anti-Proliferation Activities of Biaryl Dimers, A549",28900 nM
same,IC50,"[5]; Table 4, read-out: Anti-Proliferation Activities of Biaryl Dimers, HT29",11700 nM
same,IC50,"[3]; Table 4, read-out: Anti-Proliferation Activities of Biaryl Dimers, PC3mm2",12500 nM
same,IC50,[4]; [14],1950 ± 400 nM
CO[C@H]1[C@H](OC(=O)c2ccc(C)[nH]2)[C@H](O)[C@@H](Oc2ccc3c(O)c(NC(=O)c4c[nH]c(C(=O)Nc5c(O)c6ccc(O[C@H]7OC(C)(C)[C@@H](OC)[C@H](OC(=O)c8ccc(C)[nH]8)[C@@H]7O)c(C)c6oc5=O)c4C)c(=O)oc3c2C)OC1(C)C [coumermycin A1],IC50,"cancer cells; previously found, background, read-out: IC50 against cancer cells (anti-proliferative activity)",70000 nM
same,fold increase in anti-proliferative activity over novobiocin,cancer cells; relative to novobiocin,10 fold
COc1ccc(C(=O)Nc2cc3cc(OC)c(OC4OC(C)(C)C(OC)C(O)C4O)c(C)c3oc2=O)cc1-c1cc(C(=O)Nc2cc3cc(OC)c(OC4OC(C)(C)C(OC)C(O)C4O)c(C)c3oc2=O)ccc1OC (stereo not drawn) [Compound 69],IC50,[1]; [13],720 ± 210 nM
same,IC50,[4]; [14],110 ± 50 nM
same,fold more active on SkBr3 cell lines than corresponding 8-Me and 8-OMe coumarin analogs (Compounds 66 and 68),[4]; versus Compounds 66 and 68,7-8 fold
COC1C(O)C(O)C(Oc2ccc3cc(NC(=O)CC=CCC(=O)Nc4cc5ccc(OC6OC(C)(C)C(OC)C(O)C6O)c(C)c5oc4=O)c(=O)oc3c2C)OC1(C)C (stereo not drawn) [Compound 20],IC50,[1]; [11],53100 ± 7100 nM
same,IC50,[4]; [12],> 100000 nM
COc1cc2cc(NC(=O)CCC/C=C/CCCC(=O)Nc3cc4cc(OC)c(OC5CCN(C)CC5)c(C)c4oc3=O)c(=O)oc2c(C)c1OC1CCN(C)CC1 [Compound 33],IC50,[1]; [7],310 ± 50 nM
same,IC50,[2]; [8],37700 nM
same,IC50,[3]; [9],380 nM
same,IC50,[4]; [10],220 ± 50 nM
